How the values were obtained:
Test in all cases: relative viability (nuclei count vs DMSO), 5 days (fraction); higher = more cells survive
JZL-184 + Trametinib = compound: C1CN(CCC1C(C2=CC3=C(C=C2)OCO3)(C4=CC5=C(C=C4)OCO5)O)C(=O)OC6=CC=C(C=C6)[N+](=O)[O-] [JZL-184] + CC(=O)Nc1cccc(-n2c(=O)n(C3CC3)c(=O)c3c(Nc4ccc(I)cc4F)n(C)c(=O)c(C)c32)c1 [Trametinib] (partner 0.02 µM)
Summary of the method: (§1)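 Nuclei were stained with Hoechst during a one-step fixation (final 0.05% Triton X-100, 1% formaldehyde, 1 ug/ml Hoechst) carried out 5 days after dosing, then counted on 4× images. The cells, lung cancer lines in 1536-well plates, had been dosed by pin tool the day after seeding with one drug alone or a fixed anchor-drug dose plus five library-drug doses (not always all listed) in √10 steps. Relative viability is the nuclei count in treated wells divided by that in vehicle wells, and each value is the median of duplicate plates.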

JZL-184 + Crizotinib = compound: C1CN(CCC1C(C2=CC3=C(C=C2)OCO3)(C4=CC5=C(C=C4)OCO5)O)C(=O)OC6=CC=C(C=C6)[N+](=O)[O-] [JZL-184] + C[C@@H](Oc1cc(-c2cnn(C3CCNCC3)c2)cnc1N)c1c(Cl)ccc(F)c1Cl [Crizotinib] (partner 1 µM)
Summary of the method: as §1

JZL-184 + Linsitinib = compound: C1CN(CCC1C(C2=CC3=C(C=C2)OCO3)(C4=CC5=C(C=C4)OCO5)O)C(=O)OC6=CC=C(C=C6)[N+](=O)[O-] [JZL-184] + C[C@]1(O)C[C@@H](c2nc(-c3ccc4ccc(-c5ccccc5)nc4c3)c3c(N)nccn32)C1 [Linsitinib] (partner 1 µM)
Summary of the method: as §1

JZL-184 + Pemetrexed = compound: C1CN(CCC1C(C2=CC3=C(C=C2)OCO3)(C4=CC5=C(C=C4)OCO5)O)C(=O)OC6=CC=C(C=C6)[N+](=O)[O-] [JZL-184] + Nc1nc2[nH]cc(CCc3ccc(C(=O)N[C@@H](CCC(=O)O)C(=O)O)cc3)c2c(=O)[nH]1 [Pemetrexed] (partner 0.2 µM)
Summary of the method: as §1

JZL-184 + Olaparib = compound: C1CN(CCC1C(C2=CC3=C(C=C2)OCO3)(C4=CC5=C(C=C4)OCO5)O)C(=O)OC6=CC=C(C=C6)[N+](=O)[O-] [JZL-184] + O=C(c1cc(Cc2n[nH]c(=O)c3ccccc23)ccc1F)N1CCN(C(=O)C2CC2)CC1 [Olaparib] (partner 8 µM)
Summary of the method: as §1

NCI-H2347
relative viability (JZL-184 + Trametinib; first compound 0.4 µM): 0.313 | relative viability (JZL-184 + Trametinib; first compound 1.265 µM): 0.275 | relative viability (JZL-184 + Trametinib; first compound 4 µM): 0.283 | relative viability (JZL-184 + Crizotinib; first compound 0.04 µM): 0.968 | relative viability (JZL-184 + Crizotinib; first compound 0.4 µM): 0.835 | relative viability (JZL-184 + Crizotinib; first compound 1.265 µM): 0.694 | relative viability (JZL-184 + Crizotinib; first compound 4 µM): 0.72 | relative viability (JZL-184 + Linsitinib; first compound 0.04 µM): 0.98 | relative viability (JZL-184 + Linsitinib; first compound 0.4 µM): 0.953 | relative viability (JZL-184 + Linsitinib; first compound 1.265 µM): 0.926 | relative viability (JZL-184 + Linsitinib; first compound 4 µM): 0.946 | relative viability (JZL-184 + Pemetrexed; first compound 0.04 µM): 0.388 | relative viability (JZL-184 + Pemetrexed; first compound 0.4 µM): 0.368 | relative viability (JZL-184 + Pemetrexed; first compound 1.265 µM): 0.402 | relative viability (JZL-184 + Pemetrexed; first compound 4 µM): 0.45 | relative viability (JZL-184 + Olaparib; first compound 0.4 µM): 0.577 | relative viability (JZL-184 + Olaparib; first compound 1.265 µM): 0.586 | relative viability (JZL-184 + Olaparib; first compound 4 µM): 0.53

NCI-H2405
relative viability (JZL-184 + Trametinib; first compound 0.04 µM): 0.703 | relative viability (JZL-184 + Trametinib; first compound 0.4 µM): 0.664 | relative viability (JZL-184 + Trametinib; first compound 1.265 µM): 0.69 | relative viability (JZL-184 + Trametinib; first compound 4 µM): 0.45 | relative viability (JZL-184 + Crizotinib; first compound 0.04 µM): 0.87 | relative viability (JZL-184 + Crizotinib; first compound 0.4 µM): 0.857 | relative viability (JZL-184 + Crizotinib; first compound 1.265 µM): 0.968 | relative viability (JZL-184 + Crizotinib; first compound 4 µM): 0.811 | relative viability (JZL-184 + Linsitinib; first compound 0.04 µM): 0.806 | relative viability (JZL-184 + Linsitinib; first compound 0.4 µM): 0.895 | relative viability (JZL-184 + Linsitinib; first compound 1.265 µM): 1.09 | relative viability (JZL-184 + Linsitinib; first compound 4 µM): 0.986 | relative viability (JZL-184 + Pemetrexed; first compound 0.04 µM): 1.09 | relative viability (JZL-184 + Pemetrexed; first compound 0.4 µM): 0.999 | relative viability (JZL-184 + Pemetrexed; first compound 1.265 µM): 1.14 | relative viability (JZL-184 + Pemetrexed; first compound 4 µM): 1.05 | relative viability (JZL-184 + Olaparib; first compound 0.04 µM): 0.974 | relative viability (JZL-184 + Olaparib; first compound 0.4 µM): 0.901 | relative viability (JZL-184 + Olaparib; first compound 1.265 µM): 0.836 | relative viability (JZL-184 + Olaparib; first compound 4 µM): 0.855

NCI-H3122
relative viability (JZL-184 + Trametinib; first compound 0.04 µM): 0.211 | relative viability (JZL-184 + Trametinib; first compound 0.4 µM): 0.168 | relative viability (JZL-184 + Trametinib; first compound 1.265 µM): 0.242 | relative viability (JZL-184 + Trametinib; first compound 4 µM): 0.242 | relative viability (JZL-184 + Crizotinib; first compound 0.04 µM): 0.27 | relative viability (JZL-184 + Crizotinib; first compound 0.4 µM): 0.237 | relative viability (JZL-184 + Crizotinib; first compound 1.265 µM): 0.282 | relative viability (JZL-184 + Crizotinib; first compound 4 µM): 0.323 | relative viability (JZL-184 + Linsitinib; first compound 0.04 µM): 1.03 | relative viability (JZL-184 + Linsitinib; first compound 0.4 µM): 0.949 | relative viability (JZL-184 + Linsitinib; first compound 1.265 µM): 1.03 | relative viability (JZL-184 + Linsitinib; first compound 4 µM): 0.971 | relative viability (JZL-184 + Pemetrexed; first compound 0.04 µM): 0.187 | relative viability (JZL-184 + Pemetrexed; first compound 0.4 µM): 0.18 | relative viability (JZL-184 + Pemetrexed; first compound 1.265 µM): 0.2 | relative viability (JZL-184 + Pemetrexed; first compound 4 µM): 0.204 | relative viability (JZL-184 + Olaparib; first compound 0.04 µM): 0.571 | relative viability (JZL-184 + Olaparib; first compound 0.4 µM): 0.55 | relative viability (JZL-184 + Olaparib; first compound 1.265 µM): 0.667 | relative viability (JZL-184 + Olaparib; first compound 4 µM): 0.598

PC-3 [JPC-3]
relative viability (JZL-184 + Trametinib; first compound 0.04 µM): 0.779 | relative viability (JZL-184 + Trametinib; first compound 0.4 µM): 0.71 | relative viability (JZL-184 + Trametinib; first compound 1.265 µM): 0.708 | relative viability (JZL-184 + Trametinib; first compound 4 µM): 0.687 | relative viability (JZL-184 + Crizotinib; first compound 0.04 µM): 1.02 | relative viability (JZL-184 + Crizotinib; first compound 0.4 µM): 1.03 | relative viability (JZL-184 + Crizotinib; first compound 1.265 µM): 1.01 | relative viability (JZL-184 + Crizotinib; first compound 4 µM): 0.974 | relative viability (JZL-184 + Linsitinib; first compound 0.04 µM): 0.955 | relative viability (JZL-184 + Linsitinib; first compound 0.4 µM): 0.936 | relative viability (JZL-184 + Linsitinib; first compound 1.265 µM): 0.973 | relative viability (JZL-184 + Linsitinib; first compound 4 µM): 0.905 | relative viability (JZL-184 + Pemetrexed; first compound 0.04 µM): 0.994 | relative viability (JZL-184 + Pemetrexed; first compound 0.4 µM): 1.13 | relative viability (JZL-184 + Pemetrexed; first compound 1.265 µM): 1.27 | relative viability (JZL-184 + Pemetrexed; first compound 4 µM): 1.05 | relative viability (JZL-184 + Olaparib; first compound 0.04 µM): 1.14 | relative viability (JZL-184 + Olaparib; first compound 0.4 µM): 1.04 | relative viability (JZL-184 + Olaparib; first compound 1.265 µM): 1.21 | relative viability (JZL-184 + Olaparib; first compound 4 µM): 1.15

PC-14
relative viability (JZL-184 + Trametinib; first compound 0.04 µM): 1.1 | relative viability (JZL-184 + Trametinib; first compound 0.4 µM): 0.693 | relative viability (JZL-184 + Trametinib; first compound 1.265 µM): 0.738 | relative viability (JZL-184 + Trametinib; first compound 4 µM): 0.635 | relative viability (JZL-184 + Crizotinib; first compound 0.04 µM): 0.909 | relative viability (JZL-184 + Crizotinib; first compound 0.4 µM): 0.966 | relative viability (JZL-184 + Crizotinib; first compound 1.265 µM): 0.828 | relative viability (JZL-184 + Crizotinib; first compound 4 µM): 0.86 | relative viability (JZL-184 + Linsitinib; first compound 0.04 µM): 1.05 | relative viability (JZL-184 + Linsitinib; first compound 0.4 µM): 0.965 | relative viability (JZL-184 + Linsitinib; first compound 1.265 µM): 0.95 | relative viability (JZL-184 + Linsitinib; first compound 4 µM): 0.942 | relative viability (JZL-184 + Pemetrexed; first compound 0.04 µM): 0.126 | relative viability (JZL-184 + Pemetrexed; first compound 0.4 µM): 0.128 | relative viability (JZL-184 + Pemetrexed; first compound 1.265 µM): 0.15 | relative viability (JZL-184 + Pemetrexed; first compound 4 µM): 0.114 | relative viability (JZL-184 + Olaparib; first compound 0.04 µM): 0.251 | relative viability (JZL-184 + Olaparib; first compound 0.4 µM): 0.223 | relative viability (JZL-184 + Olaparib; first compound 1.265 µM): 0.233 | relative viability (JZL-184 + Olaparib; first compound 4 µM): 0.219

From the supplement of paper PMC10307832
